Experimental findings from PubChem BioAssay (NCI) are described below.

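Exposure lasted 48 hours, with cells grown in 96-well plates and compounds tested at five concentrations. The concentration for 50% growth inhibition is given as GI50. TGI is the concentration that stops growth completely.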 A value given as a limit tells only on which side of the number the result lay.

Among the test systems are SK-MEL-2 melanoma; ACHN renal; SF-268 CNS; MOLT-4 leukemia; RXF 393 renal; U251 CNS; K-562 leukemia; MDA-MB-231 breast.
What all share (test): NCI anticancer screen, dose series, 48 h

For the compound `Cc1cc(Cl)nc(N(CCCNc2ccnc3cc(Cl)ccc23)Cc2ccco2)n1`, the GI50 in the experiment with SK-MEL-2 melanoma was 2.82 µM; in the experiment with ACHN renal, 3 µM; with SF-268 CNS it was 3.83 µM; with MOLT-4 leukemia it was 1.93 µM; in the experiment with RXF 393 renal it was 1.41 µM; in the experiment with U251 CNS, 2.07 µM. The values for the GI50 with K-562 leukemia and with MDA-MB-231 breast were 1.4 µM and 2.13 µM, respectively. In addition, the TGI with SK-MEL-2 melanoma is 9.19 µM; in the experiment on ACHN renal, 12 µM; in the experiment on SF-268 CNS, 31.1 µM; in the experiment on MOLT-4 leukemia, 6.46 µM; in the experiment with RXF 393 renal, 4.55 µM; with U251 CNS, 6.15 µM. The TGI with K-562 leukemia was found to be 5.86 µM; in the experiment on MDA-MB-231 breast it was 5.93 µM.

For `C=C1C(=O)OC2/C=C(/C)C(OC(C)=O)C/C=C(\C)C(OC(=O)C3(C)OC3C)C(O)C12` (stereo unspecified), the TGI with SK-MEL-2 melanoma, in the experiment on ACHN renal, in the experiment on SF-268 CNS, in the experiment on MOLT-4 leukemia, in the experiment on RXF 393 renal and with U251 CNS was more than 100 µM in each case. The TGI with K-562 leukemia and in the experiment with MDA-MB-231 breast was more than 100 µM in each case.

In the case of `CC[n+]1c(/C=C/C=C2\N(C)c3ccccc3C2(C)C)sc2ccccc21`, the GI50 was 5.23 µM in the experiment with SK-MEL-2 melanoma; 4.1 µM with ACHN renal; 4.43 µM in the experiment on SF-268 CNS; 4.44 µM in the experiment on MOLT-4 leukemia; 4.33 µM in the experiment with RXF 393 renal; 3.85 µM in the experiment with U251 CNS. For the same compound, the figures for the GI50 in the experiment with K-562 leukemia and with MDA-MB-231 breast were 4.34 µM and 4.5 µM, respectively. For the same compound, the TGI in the experiment on SK-MEL-2 melanoma amounted to 11 µM; in the experiment on ACHN renal, 8.21 µM; with SF-268 CNS, 8.92 µM; with MOLT-4 leukemia, 11.6 µM; with RXF 393 renal it was 10.3 µM; in the experiment with U251 CNS, 7.61 µM. Further, the TGI was determined as 9.43 µM in the experiment on K-562 leukemia and 10.3 µM with MDA-MB-231 breast.

Turning to `CN1CSC(=S)N(Cc2ccccc2)C1`, the GI50 in the experiment on SK-MEL-2 melanoma was 4.64 µM; in the experiment with ACHN renal, 14.1 µM; in the experiment on SF-268 CNS it was 14.8 µM; with MOLT-4 leukemia, 11.2 µM; with RXF 393 renal, 11.7 µM; with U251 CNS, 13.5 µM. Also, the GI50 in the experiment with K-562 leukemia is 2.81 µM; with MDA-MB-231 breast, 13.6 µM. The TGI with SK-MEL-2 melanoma was 18.2 µM; with ACHN renal it was 27.1 µM; in the experiment on SF-268 CNS, 36.1 µM; in the experiment on MOLT-4 leukemia, more than 100 µM; in the experiment with RXF 393 renal it was 24 µM; with U251 CNS, 30.2 µM. Further, the TGI in the experiment on K-562 leukemia is more than 100 µM; with MDA-MB-231 breast it was 37.7 µM.

In the case of `N#CC1c2ccccc2C=CN1C(=O)N(c1ccccc1)c1ccccc1` (stereo unspecified), the GI50 with SK-MEL-2 melanoma is 3.97 µM; in the experiment with ACHN renal, 1.79 µM; in the experiment with SF-268 CNS, 4.31 µM; in the experiment with MOLT-4 leukemia, 2.44 µM; with RXF 393 renal it was 1.73 µM; in the experiment with U251 CNS, 6.59 µM. Also, the figures for the GI50 in the experiment on K-562 leukemia and with MDA-MB-231 breast were 3.06 µM and 2.94 µM, respectively. The TGI in the experiment on SK-MEL-2 melanoma was 13.6 µM; with ACHN renal, 3.3 µM; in the experiment with SF-268 CNS, 15.4 µM; with MOLT-4 leukemia it was 7.45 µM; in the experiment on RXF 393 renal, 3.2 µM; in the experiment with U251 CNS it was 19.3 µM. The TGI in the experiment with K-562 leukemia is more than 100 µM; in the experiment with MDA-MB-231 breast it was 8.35 µM.

For the compound `Cn1cc(C2=C(c3cn(CCCCCSC(=N)N)c4ccccc34)C(=O)NC2=O)c2ccccc21`, the GI50 in the experiment with SK-MEL-2 melanoma is 3.13 µM; in the experiment with ACHN renal, 3.54 µM; in the experiment on SF-268 CNS it was 3.86 µM; in the experiment on MOLT-4 leukemia, 2.06 µM; with RXF 393 renal it was 2.55 µM; with U251 CNS it was 2.5 µM. In addition, the values for the GI50 in the experiment with K-562 leukemia and in the experiment with MDA-MB-231 breast were 1.49 µM and 3.91 µM, respectively. Moreover, the TGI with SK-MEL-2 melanoma was 6.43 µM; with ACHN renal, 6.94 µM; in the experiment on SF-268 CNS it was 7.8 µM; in the experiment with MOLT-4 leukemia, 6.25 µM; in the experiment with RXF 393 renal, 5.68 µM; in the experiment with U251 CNS, 5.65 µM. Moreover, the TGI stood at 5.31 µM with K-562 leukemia and 7.49 µM in the experiment on MDA-MB-231 breast.

As for `COc1cc2c3c(n(C)c(=O)c2cc1OC)-c1ccc(C#N)cc1C3=O`, the GI50 is more than 100 µM in the experiment on SK-MEL-2 melanoma; more than 100 µM in the experiment on ACHN renal; more than 100 µM in the experiment with SF-268 CNS; more than 100 µM in the experiment with MOLT-4 leukemia; more than 100 µM in the experiment with RXF 393 renal; 84.9 µM in the experiment with U251 CNS. The GI50 in the experiment with K-562 leukemia and in the experiment on MDA-MB-231 breast was more than 100 µM in each case. Further, the TGI in the experiment on SK-MEL-2 melanoma, with ACHN renal, in the experiment with SF-268 CNS, in the experiment on MOLT-4 leukemia, with RXF 393 renal and with U251 CNS was more than 100 µM each time. Also, the TGI in the experiment with K-562 leukemia and in the experiment with MDA-MB-231 breast was more than 100 µM throughout.

Turning to `C=CC(=O)N1CC2(CC(n3nc(-c4ccc5c(cnn5C)c4)c(-c4c(Cl)c(C)cc5[nH]ncc45)c3C)C2)C1`, the GI50 with SK-MEL-2 melanoma was 1.91 µM; in the experiment with ACHN renal it was 2.01 µM; with SF-268 CNS, 4.5 µM; in the experiment on MOLT-4 leukemia, 1.74 µM; with RXF 393 renal, 1.6 µM; in the experiment on U251 CNS, 1.89 µM. Further, the figures for the GI50 in the experiment with K-562 leukemia and in the experiment with MDA-MB-231 breast were 2.78 µM and 2.54 µM, respectively. For the same compound, the TGI in the experiment on SK-MEL-2 melanoma was 3.63 µM; in the experiment on ACHN renal it was 4.81 µM; in the experiment on SF-268 CNS, 20 µM; in the experiment with MOLT-4 leukemia it was 9 µM; in the experiment on RXF 393 renal it was 3.49 µM; with U251 CNS it was 4.07 µM. For the same compound, the TGI in the experiment with K-562 leukemia was more than 100 µM; with MDA-MB-231 breast it was 6.62 µM.

As to `O=C(Nc1nc2ccccc2s1)Nc1ccc([N+](=O)[O-])cc1Cl`, the GI50 in the experiment with SK-MEL-2 melanoma was 12.7 µM; with ACHN renal it was 6.53 µM; with SF-268 CNS, 4.49 µM; in the experiment with MOLT-4 leukemia it was 5.92 µM; in the experiment with RXF 393 renal, 1.59 µM; in the experiment on U251 CNS, 2.13 µM. Also, the GI50 in the experiment with K-562 leukemia is 3.48 µM; with MDA-MB-231 breast, 3.21 µM. Moreover, the TGI was 26.9 µM in the experiment on SK-MEL-2 melanoma; 18 µM in the experiment on ACHN renal; 18.6 µM in the experiment with SF-268 CNS; more than 47.4 µM with MOLT-4 leukemia; 3.28 µM with RXF 393 renal; 4.75 µM in the experiment with U251 CNS. Further, the TGI is more than 100 µM with K-562 leukemia and 8.59 µM with MDA-MB-231 breast.
